Results on 8 compounds are retold here after US20100317671A1, “XANTHINE-BASED CYCLIC GMP-ENHANCING RHO-KINASE INHIBITOR INHIBITS PHYSIOLOGICAL ACTIVITIES OF LUNG EPITHELIAL CELL LINE” (KAOHSIUNG MEDICAL UNIVERSITY, priority 2008, published 2010).

Counter-ions that a name gives are not always drawn.

One experiment concerns collagen. In words: Collagen amount, bleomycin-induced IPF mice. It is filed as in vivo. As to conditions: day 28 after BLM. The procedure:
The amount of the collagen in the lung lavage is measured to reflect the fibrosis formation. […] (2) After the lung lavage is obtained, the chest of mice is opened and the lung lobes are cut one by one. […] The 1.5 ml eppendorffs are taken to arrange the calibration curve as follows. […] The eppendorff is then centrifuged at 12,000 rpm for 10 mins. The supernatant in the eppendorff is poured out slowly, 1 ml basic compound is added for dissolving the precipitation. After being violently shaken for 5 mins, the reaction is incubated for 3 hrs to stabilize the color. […] The amount of collagen is estimated through the 540 nm absorption measured by the ELISA reader.

Experiment [1] concerns inflammatory cells in the lung lavage. In words: Inflammatory cells in lung lavage, bleomycin-induced IPF mice. Type of experiment: in vivo. The arrangement: WBC total (white blood cell total count) / NE (neutrophil) / LY (lymphocyte) / MO (monocyte) / EO (eosinophil) / BA (basophil): unit not given here. As to conditions: lung lavage. As for the experimental part:
The amounts of the total cell, the neutrophill, the lymphocyte, the monocyte, the eosinophill and the basophill are analyzed by an automatic animal blood cell analyzer for evaluating the extent of the inflammation. […] The mice are euthanatized by administering the Urathane in a dose of 37.5 mg/10 g. The larynx is opened, the trachea is picked out, cut and held by a forcepts and a 0.58 mm PE tube is slowly inserted the trachea for infusing 0.5 ml PBS. The PBS is incubated for 15 seconds and then collected after gently massaging the lung tissue. 1 c.c. lung lavage is obtained after the above steps are repeated twice. The lung lavage is collected and transferred into a centrifuged tube for centrifuging at 1,200 rpm at 4° C. for 6 mins. The supernatant is collected and stored at −80° C. for zymography, and the pellet is suspended in PBS for calculating the WBC count. The pellet of the alveolar lavage is suspended in PBS and transferred into an eppendorff. The amount and kind of the inflammatory cell such as WBC total, the lymphocyte, the monocyte, the neutrophil, the eosinophil and the basophil are analyzed by an automatic animal blood cell analyzer.

Experiment [2] can be described thus: Body weight change, bleomycin-induced IPF mice. It is filed as in vivo. The procedure: The six-week old mice are used in this experiment and divided into ten groups as follows. […] The six-week old male C57B1/6 mice are purchased from the National Laboratory Animal Center. […] After being […] pentobarbital in the dose of 0.52 mg/10 g, the mice is kept upright and positioned an otoscope into the larynx for looking into the trachea clearly. The bleomycin is loaded by a loading tip for intratracheal administration.

For a further experiment, the system named is inflammatory cells. In words: H&E stain of lung tissue sections, bleomycin mice. It is filed as in vivo. The following applies: day 28. An excerpt: In the histology observation, the bleomycin-induced mice show the pathology characteristic of lung fibrosis. In the lung tissue sections of the normal control group, the structure of the lung tissue is clear and has no inflammatory cells infiltration, the alveolar wall is complete and not being broaden, the lung atrophy and the vascular wall thickening are not found, and the inflammatory cells infiltration is not found in the bronchial cavity and the alveolar cavity. […] On day 28, the alveolar is dystructured, the macrophage aggregation can be seen in part of aveoli, the fibroblast and fibric cell proliferate, and the fibers are accumulated in the lung interstitium. In the treating group, the inflammatory state is inhibited well on day 7.
The with 10% formalin treated and freezed lung is placed in a tissue dehydrating machine, and the tissue is fixed, dehydrated, washed and rinsed in turn. The tissue is further prepared as a wax-embedded tissue by a tissue embedded machine through appropriate cooling. The wax-embedded tissue is cut by a sliding microtome. The slices about 4 μm are placed on the slides and extended in 35° C.-50° C. warm water, and then dried in a 56° C.-60° C. extender for staining
The slices are successively dehydrated via 50%-99.9% ethanol, incubated in xylene for 2 hrs and the incubation step is repeated twice. […]

The nature of experiment [3]: Monocrotaline (MCT)-induced pulmonary arterial hypertension, PABP. Type of experiment: in vivo, male Wistar rats. The following applies: MCT-treated rats; for Pulmonary arterial blood pressure (PABP), in words: 2.5 mg/kg orally every day; for PABP: 2.5 mg/kg/day p.o. As for the experimental part:
The rats administered MCT (60 mg/kg) are caused pulmonary artery hypertension on day 21 after the intraperitoneal injection. The KMUP-1HCl salt (2.5 mg/kg), Simvastatin (2.5 mg/kg), KMUP-1-nicotinic acid complex (2.5 mg/kg), KMUP-1-citric acid complex (2.5 mg/kg), KMUP-1-Simvastatinic Acid complex (2.5 mg/kg) and KMUP-1-γ-polyglutamic acid complex (2.5 mg/kg) orally administered, or the KMUP-1-PGI2 complex (0.1 mM) inhaled every day may inhibit the pulmonary arterial blood pressure (PABP) in MCT-treated male Wistar rats.

The subject of a further experiment is TGF-β. Description: TGF-β expression, bleomycin-induced lung fibrosis (EIA). It is filed as in vivo, mice. As to conditions: BM 60 mg/kg. As for the experimental part:
The increased amount of the collagen synthesis and the macrophage generation in alveolus may facilitate the formulation of TGF-β, and the expression of TGF-β is deeming as a biomarker of the lung fibrosis. KMUP-1HCl salt (1, 2.5 and 5 mg/kg), the Simvastatin (5 mg/kg), the KMUP-1-nicotinic acid complex (2.5 mg/kg), the KMUP-1-Simvastatinic acid complex (2.5 mg/kg) and KMUP-1-γ-polyglutamic acid complex (2.5 mg/kg) are orally administered to the mice for inhibiting the lung fibrosis induced by TGF-β expression in tracheal lavage solution that resulted from 60 mg/kg BM inhalation (Table 6). The state of the TGF-β expression in the lavage is measured by the enzyme immunoassay (EIA).

Experiment [4] relates to MMP-9. Description: OVA-induced MMP-9 expression in lung tissue, asthma mice. It is filed as in vivo, BALB/c mice. The following applies: OVA + drug 5 mM spray, 30 mins/day, days 21 to 27; lung tissue; OVA + vehicle control 100%.
For another experiment, the system named is eNOS. In words: Short-term nebulization without OVA sensitization, lung tissue. Type of experiment: in vivo, mice. The following applies: L-NAME-pretreatment 12 mM, 30 mins. As for the experimental part: (§1) Short-term KMUP-1 (5 mM, 30 min) nebulization and pretreatment with L-NAME (12 mM, […]) are accomplished using a previously described method. Aerosols were generated by ultrasonic nebulizer from day 21 to 27. Mice were sacrificed on day 28. Three different experiments were performed on cohorts of 7-14 mice per experimental condition.
(§2) Please refer to FIGS. 22(B) and 23(B), the changes of eNOS and MMP-9 expression by KMUP-1 (2.5 mM, 30 mins) are reversed by L-NAME-pretreatment (12 mM, 30 mins).

The test system of experiment [5] is MMP-9. Described as above. As to conditions: L-NAME-pretreatment 12 mM, 30 mins. It is filed as in vivo, mice. As for the experimental part:
as §1, §2

With `CC[C@H]1OC(=O)[C@H](C)[C@@H](O[C@H]2C[C@@](C)(OC)[C@@H](O)[C@H](C)O2)[C@H](C)[C@@H](O[C@@H]2O[C@H](C)C[C@H](N(C)C)[C@H]2O)[C@](C)(OC)C[C@@H](C)C(=O)[C@H](C)[C@@H](O)[C@]1(C)O` [Clarithromycin, reference compound], the “The amount of collagen” value with collagen (dose 10 mg/kg) came to 86.07 ± 0.02 μg/lung. Besides, in experiment [1] (day 7, dose 10 mg/kg), the “BA (basophil)” value is on record as 0.02 ± 0.01, the “EO (eosinophil)” value came to 0.07 ± 0.02, the “LY (lymphocyte)” value was determined as 0.56 ± 0.17 and the “MO (monocyte)” value is reported as 0.05 ± 0.02. In addition, in [1] (day 7, dose 10 mg/kg), the “NE (neutrophil)” value is 0.2 ± 0.09 and the “WBC total (white blood cell total count)” value amounted to 0.89 ± 0.3. For the same compound, in experiment [1] (day 28, dose 10 mg/kg), the “BA (basophil)” value is reported as 0.25 ± 0.16, the “EO (eosinophil)” value worked out at 0.5 ± 0.33, the “LY (lymphocyte)” value is recorded as 1.64 ± 1.49 and the “MO (monocyte)” value stood at 0.16 ± 0.16. Further, in [1] (day 28, dose 10 mg/kg), the “NE (neutrophil)” value came to 0.68 ± 0.57 and the “WBC total (white blood cell total count)” value turned out to be 3.23 ± 0.52. This compound also came in with a Body weight in experiment [2] (Day 7, dose 10 mg/kg) of 19.93 ± 3.28 g. This compound also registered a Body weight in [2] (Day 14, dose 10 mg/kg) of 19.17 ± 3.77 g. The compound further had a Body weight in [2] (Day 28, dose 10 mg/kg) of 24.7 ± 1.21 g. For the same compound, the Body weight in experiment [2] (Day −3, dose 10 mg/kg) is on record as 24.6 ± 1.48 g. For the same compound, the “Inflammation, H&E stain” value in the experiment with inflammatory cells is on record as “still has a significant inflammation phenomenon”.

For `Cn1c(=O)c2c(ncn2CCN2CCN(c3ccccc3Cl)CC2)n(C)c1=O` [KMUP-1 HCl salt], in [3], the “Pulmonary arterial blood pressure (PABP), in words” value was “inhibit” and the PABP came to 13 ± 1.7 mmHg. Besides, the “The changing amount of TGF-β in the lung tissue” value (“The changing amount of TGF-β” for short) in the experiment with TGF-β (drug 2.5 mg/kg oral) is 52 ± 5.2%. Besides, the “Inhibition % of the MMP-9” value in the experiment with MMP-9 [4] was determined as 55%.

Take `CC(=O)N[C@@H](CS)C(=O)O.Cn1c(=O)c2c(ncn2CCN2CCN(c3ccccc3Cl)CC2)n(C)c1=O` [KMUP-1-Acetylcysteine]: the “Inhibition % of the MMP-9” value in the experiment on MMP-9 [4] was 68%.

With `Cn1c(=O)c2c(ncn2CCN2CCN(c3ccccc3Cl)CC2)n(C)c1=O.N=C(N)NCCCC(N)C(=O)O` [KMUP-1-Arginine], in the experiment with MMP-9 [4], the “Inhibition % of the MMP-9” value stood at 65%.

On to `CC(C)(O)c1ccccc1CCC(SCC1(CC(=O)O)CC1)c1cccc(C=Cc2ccc3ccc(Cl)cc3n2)c1.Cn1c(=O)c2c(ncn2CCN2CCN(c3ccccc3Cl)CC2)n(C)c1=O` (stereo not drawn) [KMUP-1-Montelukast], for which, in the experiment on MMP-9 [4], the “Inhibition % of the MMP-9” value is 70%.

As to `Cn1c(=O)c2c(ncn2CCN2CCN(c3ccccc3Cl)CC2)n(C)c1=O.O=C(O)c1cccnc1` [KMUP-1-Nicotinic acid], in experiment [3], the “Pulmonary arterial blood pressure (PABP), in words” value is “inhibit” and the PABP amounted to 12 ± 2.6 mmHg. Moreover, the “The changing amount of TGF-β” value in the experiment on TGF-β (drug 2.5 mg/kg oral) is 42 ± 3.8%.

Take `COC(=O)[C@@H](N)CCCNC(=N)N[N+](=O)[O-]` [L-NAME, reference compound]: the “Change of eNOS expression by KMUP-1 (2.5 mM, 30 mins)” value in the experiment with eNOS is reported as “reversed”. In the experiment on MMP-9 [5], the “Change of MMP-9 expression by KMUP-1 (2.5 mM, 30 mins)” value is given as “reversed”.

For the compound `CCC(C)(C)C(=O)O[C@H]1C[C@@H](C)C=C2C=C[C@H](C)[C@H](CC[C@@H]3C[C@@H](O)CC(=O)O3)[C@H]21` [Simvastatin, reference compound], in the experiment with collagen (dose 5 mg/kg), the “The amount of collagen” value was 140.53 ± 0.05 μg/lung. For the same compound, in experiment [1] (day 7, dose 5 mg/kg), the “BA (basophil)” value turned out to be 0.22 ± 0.23, the “EO (eosinophil)” value was found to be 0.46 ± 0.4, the “LY (lymphocyte)” value is on record as 1.5 ± 2.17 and the “MO (monocyte)” value was 0.13 ± 0.19. In addition, in experiment [1] (day 7, dose 5 mg/kg), the “NE (neutrophil)” value is 0.76 ± 0.53 and the “WBC total (white blood cell total count)” value came to 3.09 ± 2.98. In experiment [1] (day 28, dose 5 mg/kg), the “BA (basophil)” value is on record as 0.22 ± 0.22, the “EO (eosinophil)” value is on record as 0.46 ± 0.35, the “LY (lymphocyte)” value came out at 1.5 ± 3.03 and the “MO (monocyte)” value is given as 0.13 ± 0.26. Also, in experiment [1] (day 28, dose 5 mg/kg), the “NE (neutrophil)” value was determined as 0.76 ± 0.61 and the “WBC total (white blood cell total count)” value is on record as 3.09 ± 0.92. Also, the “The changing amount of TGF-β” value with TGF-β (drug 5 mg/kg oral) turned out to be 40 ± 4.3%. Also, in experiment [2] (Day 7, dose 5 mg/kg), the Body weight is listed as 17.9 ± 1.56 g. The compound also showed a Body weight in [2] (Day 14, dose 5 mg/kg) of 19.8 ± 2.31 g. Further, the Body weight in [2] (Day 28, dose 5 mg/kg) stood at 20.3 ± 1.65 g. The Body weight in experiment [2] (Day −3, dose 5 mg/kg) worked out at 23.5 ± 1.32 g.
